Test results: patent US11247972B2, “Compositions and methods for treating toxoplasmosis, cryptosporidiosis, and other apicomplexan protozoan related diseases” (University of Washington through its Center for …, priority 2010, dated 2022)
“Also recorded” adds a separate entry of the source.

How the values were obtained:
PfCDPK4 = PfCDPK4 (Plasmodium falciparum (isolate 3D7), UniProt Q8IBS5); assay: biochemical; conditions: read-out: PfCDPK4 (% inhibition @ 3 uM)
[1] = system: human promyelocytic leukemia (HL-60); assay: Growth inhibition / toxicity in human cell line HL-60; conditions: HL60, 10 μM
[2] = system: human lymphocyte (CRL8155); assay: Growth inhibition / toxicity in human cell line CRL8155; conditions: CRL8155, 10 μM
SRC = SRC (Homo sapiens (Human), UniProt P12931); assay: Tyrosine kinase SRC counter-screen; type: biochemical
PfCDPK1 = PfCDPK1 (Plasmodium falciparum (isolate 3D7), UniProt P62344); assay: biochemical; conditions: read-out: PfCDPK1 (% inhibition @ 3 uM)
ABL = ABL (Homo sapiens (Human), UniProt P00519)
[3] = system: P. berghei expressing PfCDPK4-2x-myc; set-up: species or system Plasmodium berghei; conditions: in vivo
P. berghei = system: P. berghei; set-up: species or system Plasmodium berghei; conditions: in vivo
P. falciparum = P. falciparum NF54 gametocyte exflagellation with compound in blood; type: cell-based, Plasmodium falciparum; conditions: 1 and 3 μM
C. parvum [4] = assay: Immunosuppressed (SCID-beige) mouse C. parvum model, stool qRT-PCR; type: in vivo, Cryptosporidium parvum; conditions: oral gavage once a day, days 3-7 and 10-14; 29 and 150 50 mg/kg/day, Paromomycin 2 g/kg/day
Description: Shown are mean of the parasite numbers detected in 25 mg of stool from each mouse, by qRT-PCR.

TgCDPK1 = TgCDPK1 (Toxoplasma gondii, UniProt Q9BJF5); type: biochemical
CpCDPK1 = CpCDPK1 (Cryptosporidium parvum (strain Iowa II), UniProt A3FQ16); type: biochemical
C. parvum [5] = assay: C. parvum infection of HCT-8 cells (rRNA reverse transcriptase real time PCR); type: cell-based, Cryptosporidium parvum; conditions: inhibitor at time of infection and 1 hour after infection
glioma derived (SF539) = assay: Growth inhibition / toxicity in human cell line SF539

Cc1cccc2[nH]c(-c3nn(C(C)C)c4ncnc(N)c34)cc12 [Compound 25, 1-isopropyl-3-(4-methyl-1H-indol-2-yl)-1H-pyrazolo[3,4-d]pyrimidin-4-amine]
inhibition at 3 µM (PfCDPK4): 92% | Cell Toxicity HL60, % at 10 μM [1]: 47% toxicity at | Cell Toxicity CRL8155, % at 10 μM [2]: 38% toxicity at

Nc1ncnc2c1c(Cc1cccc3ccccc13)nn2CC1CCNCC1 [Compound 5h, 3-(naphthalen-1-ylmethyl)-1-(piperidin-4-ylmethyl)-1H-pyrazolo[3,4-d]pyrimidin-4-amine]
inhibition of SRC (in words) (SRC): reduced potency | inhibition at 3 µM (PfCDPK1): 66% | inhibition at 3 µM (PfCDPK4): 95% | inhibition of ABL (in words) (ABL): reduced potency

CC(C)n1nc(-c2cc3c(Cl)cccc3[nH]2)c2c(N)ncnc21 [Compound 26, 3-(4-chloro-1H-indol-2-yl)-1-isopropyl-1H-pyrazolo[3,4-d]pyrimidin-4-amine]
inhibition at 3 µM (PfCDPK4): 93% | Cell Toxicity HL60, % at 10 μM [1]: 45% toxicity at | Cell Toxicity CRL8155, % at 10 μM [2]: 38% toxicity at

CCOc1ccc2cc(-c3nn(CC4CCNCC4)c4ncnc(N)c34)ccc2c1 [Compound 29, 3-(6-ethoxynaphthalen-2-yl)-1-(piperidin-4-ylmethyl)-1H-pyrazolo[3,4-d]pyrimidin-4-amine]
inhibition at 3 µM (PfCDPK1): 97% | duration of complete suppression of male gametocyte differentiation to exflagellating units [3]: 14 h | exflagellation in blood samples from treated mice [3]: some exflagellation was observed | formation of oocysts in A. stephensi (P. berghei): completely blocked | P. falciparum exflagellation (P. falciparum): complete suppression; also recorded: suppressed completely; also recorded: prevented the exflagellation of microgametes | parasites in stool at the end of treatment (C. parvum [4]): not detected | rebound of parasite burden after treatment (C. parvum [4]): slowly

CC(C)(C)n1nc(-c2ccc3ccccc3c2)c2c(N)ncnc21 [Compound 2, 1-tert-butyl-3-(naphthalen-2-yl)-1H-pyrazolo[3,4-d]pyrimidin-4-amine]
inhibition of TgCDPK1 (in words) (TgCDPK1): most potent inhibitor | inhibition of CpCDPK1 (in words) (CpCDPK1): most potent inhibitor | C. parvum parasite levels / proliferation in HCT-8 cells (C. parvum [5]): most potent effect

Nc1ncnc2c1c(-c1ccc3cc(OCc4ccccc4)ccc3c1)nn2CC1CCNCC1 [Compound 34, 3-(6-(benzyloxy)naphthalen-2-yl)-1-(piperidin-4-ylmethyl)-1H-pyrazolo[3,4-d]pyrimidin-4-amine]
inhibition at 3 µM (PfCDPK4): 97% | Cell Toxicity LD50 SF539 (glioma derived (SF539)): 6 µM
